Test results published in US12427152B2, “HDAC inhibitors for use with NK cell based therapies” (Viracta Therapeutics, Inc., priority 2016, dated 2025).

Tests used:
[1] = tested on: HDAC; test: Immunoblot for acetyl-lysine 9 on Histone H3 (HDAC activity) in PC3 cells; type: cell-based; conditions: 657 nM, 2.5 h
Description: (§1) VRx-3996 was tested for its ability to inhibit HDAC activity in PC3 (prostate) and MDA-MB-231 (triple negative breast cancer) carcinoma cells. Cells were exposed to for 2.5 h to VRx-3996 (657 nM), or DMSO prior to being examined for the presence of acetyl-lysine 9 on Histone H3 by immunoblot.

[2] = tested on: HDAC; test: Immunoblot for acetyl-lysine 9 on Histone H3 (HDAC activity) in MDA-MB-231 cells; type: cell-based; conditions: 657 nM, 2.5 h
Description: as §1

[3] = tested on: PC3 cells; test: Cell surface phenotype of PC3 cells by flow cytometry; type: cell-based; conditions: 657 nM, 2.5 h/day, 4 days
Description: (§2) After treatment with DMSO (vehicle) or VRx-3996, PC3 or […] cells were analyzed for their cell surface phenotype. Cells were exposed to CHR-3996 daily (657 nM, 2.5 h/day) or DMSO control for 4 consecutive days; on day 5, cells were examined by flow cytometry for cell-surface expression of proteins associated with immune recognition, stimulation, and inhibition. Overall VRx-3996 led to several changes in both cell lines.

[4] = tested on: MDA-MB-231 cells; test: Cell surface phenotype of MDA-MB-231 cells by flow cytometry; type: cell-based; conditions: 657 nM, 2.5 h/day, 4 days
Description: as §2

[5] = tested on: PC3 cells; test: NK cell lysis assay (In-111 release) with PC3 cells as target; type: cell-based; conditions: 657 nM, 2.5 h/day, 4 days, targets on day 5, primary NK cells and HaNK
Description: Tumor cell lines PC3 and MDA-MB-231, treated with VRx-3996, were tested for their ability to be killed by different primary NK cells and the NK cell line HaNK (NK cells with a high-affinity Fc receptor which has a mutation at 158V of human FcγRIIIa). PC3 and MDA-MB-231 cells were exposed to DMSO or CHR-3996 daily (657 nM, 2.5 h/day) for 4 consecutive days, prior to being used as targets on day 5 for direct NK killing in an overnight standard In-111 release lysis assay. Primary NK cells from human PBMCs of 2 healthy donors (isolated by negative selection), and NKs rested for 24 h at 37 C° and 5% CO2, or pre-exposed to ALT803 (25 ng/ml) for 24 h, were used. HaNK cells were used 24 h post 10 Gy radiation exposure. NK cells were plated and varying effector to target ratios (E:T) against PC3 cells (FIG. 3) and MDA-MB-231 cells (FIG. 4).

[6] = tested on: PBMCs from patients with metastatic breast cancer; test: Flow cytometry of immune cell subsets in PBMCs of patients with metastatic breast cancer; type: cell-based, human; conditions: 657 nM, 2.5 h/day, 2 days
Description: Peripheral blood mononuclear cells (PBMCs) from 7 patients with metastatic breast cancer were exposed to VRx-3996 daily (657 nM, 2.5 h/day) or DMSO control for 2 consecutive days and then examined by flow cytometry for different immune cell subsets analyzed: 9 standard immune cell subsets, 114 subsets relating to maturation/function.

[7] = PBMCs of patients with metastatic cancer

O=C(NO)c1cnc(N2CC3C(C2)C3NCc2ccc3cc(F)ccc3n2)nc1 (centres unmarked) [VRx-3996, 2-(6-{[(6-Fluoroquinolin-2-yl)methyl]amino}-3-azabicyclo[3.1.0]hex-3-yl)-N-hydroxypyrimidine-5-carboxamide]
Histone H3 deacetylation (acetyl-lysine 9 on Histone H3) [1]: inhibits Histone H3 deacetylation
Histone H3 deacetylation (acetyl-lysine 9 on Histone H3) [2]: inhibits Histone H3 deacetylation
CD155 % Pos ([3]; flow cytometry day 5): 95.9%
CD155 GeoMFI ([3]; flow cytometry day 5): 742
EGFR % Pos ([3]; flow cytometry day 5): 75.6%
EGFR GeoMFI ([3]; flow cytometry day 5): 291
Fas % Pos ([3]; flow cytometry day 5): 35.3%
Fas GeoMFI ([3]; flow cytometry day 5): 79
HLA-A, B, C % Pos ([3]; flow cytometry day 5): 94.4%
HLA-A, B, C GeoMFI ([3]; flow cytometry day 5): 1198
ICAM-1 % Pos ([3]; flow cytometry day 5): 66.8%
ICAM-1 GeoMFI ([3]; flow cytometry day 5): 129
MIC-A/B % Pos ([3]; flow cytometry day 5): 48%
MIC-A/B GeoMFI ([3]; flow cytometry day 5): 124
PD-L1 % Pos ([3]; flow cytometry day 5): 28%
PD-L1 GeoMFI ([3]; flow cytometry day 5): 43
ULBP-3 % Pos ([3]; flow cytometry day 5): 7.6%
ULBP-3 GeoMFI ([3]; flow cytometry day 5): 31
% change CD155 % Pos ([3]; vs DMSO): <5%
% change CD155 GeoMFI ([3]; vs DMSO): 50%
% change EGFR % Pos ([3]; vs DMSO): −15%
% change EGFR GeoMFI ([3]; vs DMSO): −33%
% change Fas % Pos ([3]; vs DMSO): −32%
% change Fas GeoMFI ([3]; vs DMSO): −7%
% change HLA-A, B, C % Pos ([3]; vs DMSO): <5%
% change HLA-A, B, C GeoMFI ([3]; vs DMSO): 77%
% change ICAM-1 % Pos ([3]; vs DMSO): <5%
% change ICAM-1 GeoMFI ([3]; vs DMSO): 32%
% change MIC-A/B % Pos ([3]; vs DMSO): −20%
% change MIC-A/B GeoMFI ([3]; vs DMSO): 7%
% change PD-L1 % Pos ([3]; vs DMSO): −39%
% change PD-L1 GeoMFI ([3]; vs DMSO): −27%
% change ULBP-3 % Pos ([3]; vs DMSO): −88%
% change ULBP-3 GeoMFI ([3]; vs DMSO): −75%
CD122 % Pos ([4]; flow cytometry day 5): 81.9%
CD122 GeoMFI ([4]; flow cytometry day 5): 735
CD155 % Pos ([4]; flow cytometry day 5): 96.1%
CD155 GeoMFI ([4]; flow cytometry day 5): 2937
EGFR % Pos ([4]; flow cytometry day 5): 81.9%
EGFR GeoMFI ([4]; flow cytometry day 5): 735
Fas % Pos ([4]; flow cytometry day 5): 27.3%
Fas GeoMFI ([4]; flow cytometry day 5): 190
HLA-A, B, C % Pos ([4]; flow cytometry day 5): 96.2%
HLA-A, B, C GeoMFI ([4]; flow cytometry day 5): 2470
ICAM-1 % Pos ([4]; flow cytometry day 5): 96.2%
ICAM-1 GeoMFI ([4]; flow cytometry day 5): 8554
MIC-A/B % Pos ([4]; flow cytometry day 5): 94.6%
MIC-A/B GeoMFI ([4]; flow cytometry day 5): 2880
PD-L1 % Pos ([4]; flow cytometry day 5): 80%
PD-L1 GeoMFI ([4]; flow cytometry day 5): 303
TRAIL-R1(DR4) % Pos ([4]; flow cytometry day 5): 27.1%
TRAIL-R1(DR4) GeoMFI ([4]; flow cytometry day 5): 107
ULBP-2/5/6 % Pos ([4]; flow cytometry day 5): 75.9%
ULBP-2/5/6 GeoMFI ([4]; flow cytometry day 5): 365
% change CD122 % Pos ([4]; vs DMSO): −10%
% change CD122 GeoMFI ([4]; vs DMSO): 119%
% change CD155 % Pos ([4]; vs DMSO): <5%
% change CD155 GeoMFI ([4]; vs DMSO): 197%
% change EGFR % Pos ([4]; vs DMSO): −10%
% change EGFR GeoMFI ([4]; vs DMSO): 119%
% change Fas % Pos ([4]; vs DMSO): −23%
% change Fas GeoMFI ([4]; vs DMSO): 184%
% change HLA-A, B, C % Pos ([4]; vs DMSO): <5%
% change HLA-A, B, C GeoMFI ([4]; vs DMSO): 142%
% change ICAM-1 % Pos ([4]; vs DMSO): <5%
% change ICAM-1 GeoMFI ([4]; vs DMSO): 546%
% change MIC-A/B % Pos ([4]; vs DMSO): 6%
% change MIC-A/B GeoMFI ([4]; vs DMSO): 411%
% change PD-L1 % Pos ([4]; vs DMSO): <5%
% change PD-L1 GeoMFI ([4]; vs DMSO): 175%
% change TRAIL-R1(DR4) % Pos ([4]; vs DMSO): 293%
% change TRAIL-R1(DR4) GeoMFI ([4]; vs DMSO): 1290%
% change ULBP-2/5/6 % Pos ([4]; vs DMSO): 6.5%
% change ULBP-2/5/6 GeoMFI ([4]; vs DMSO): 244%
Sensitization of PC3 cells to NK lysis [5]: Sensitizes PC3 Cells to NK Lysis
FoxP3+ regulatory T cells in PBMCs [6, 7]: Reduces
FoxP3 in T regulatory subsets (FACS, FIGS. 5A and 5B) [6, 7]: reduced
B cell median frequency ([6]; PBMCs, 7 patients): 6.37 % of PBMC
B cells PDL1+ median frequency ([6]; PBMCs, 7 patients): 0.55 % of PBMC
CD4 CM PD1+ median frequency ([6]; PBMCs, 7 patients): 3.24 % of PBMC
CD4 median frequency ([6]; PBMCs, 7 patients): 42.36 % of PBMC
CD8 Tim3+ median frequency ([6]; PBMCs, 7 patients): 0.06 % of PBMC
CD8 median frequency ([6]; PBMCs, 7 patients): 17.67 % of PBMC
CD8 naive median frequency ([6]; PBMCs, 7 patients): 4.99 % of PBMC
CD49d neg Treg median frequency ([6]; PBMCs, 7 patients): 5.66 % of CD4
ICOS+ CD4 median frequency ([6]; PBMCs, 7 patients): 1.26 % of PBMC
ICOS+ PD-1+ CD4 median frequency ([6]; PBMCs, 7 patients): 0.5 % of PBMC
ICOS+ Treg median frequency ([6]; PBMCs, 7 patients): 2.31 % of CD4
MDSC CD16+ median frequency ([6]; PBMCs, 7 patients): 2.19 % of PBMC
MDSC median frequency ([6]; PBMCs, 7 patients): 5.32 % of PBMC
NK median frequency ([6]; PBMCs, 7 patients): 3.46 % of PBMC
NKT PD1+ median frequency ([6]; PBMCs, 7 patients): 0.75 % of PBMC
NKT median frequency ([6]; PBMCs, 7 patients): 4.24 % of PBMC
PD-1+ Treg median frequency ([6]; PBMCs, 7 patients): 2.31 % of CD4
Total Treg median frequency ([6]; PBMCs, 7 patients): 9.39 % of CD4
Treg CD49d neg median frequency ([6]; PBMCs, 7 patients): 0.27 % of PBMC
Treg ICOS+ median frequency ([6]; PBMCs, 7 patients): 0.14 % of PBMC
Treg median frequency ([6]; PBMCs, 7 patients): 0.47 % of PBMC
cDC median frequency ([6]; PBMCs, 7 patients): 0.11 % of PBMC
dnMDSC PDL1+ median frequency ([6]; PBMCs, 7 patients): 0.07 % of PBMC
dnMDSC median frequency ([6]; PBMCs, 7 patients): 0.36 % of PBMC
mMDSC CD16+ median frequency ([6]; PBMCs, 7 patients): 2.08 % of PBMC
mMDSC median frequency ([6]; PBMCs, 7 patients): 4.15 % of PBMC
pDC median frequency ([6]; PBMCs, 7 patients): <0.01 % of PBMC
